Laboratory results: patent US12441768B2, “Compositions and methods for treating endometriosis” (EndoMet Biosciences, Inc., priority 2018, dated 2025)
Where a SMILES comes first, the peptide text is derived from it.

What was measured:
[1] = molecular target: Wnt-responsive promoter (TCF/LEF); experiment: Wnt-dependent luciferase reporter assay; type: cell-based, murine
Procedure, shortened: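 Murine 3T3 fibroblasts carrying a TCF/LEF-driven luciferase reporter, stimulated with Wnt3a in the presence of increasing peptide concentrations or vehicle. Luminescence inhibition gave EC50 values in uM.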

β-catenin = molecular target: T1, β-catenin (Homo sapiens, UniProt P35222); experiment: KD50 measurement using competitive fluorescence polarization (FP) with labelled TCF4; type: binding; settings: fluorescence polarization, β-catenin; for Kd: read-out: β-Cat FP KD
T1 sequence (P35222 1-781): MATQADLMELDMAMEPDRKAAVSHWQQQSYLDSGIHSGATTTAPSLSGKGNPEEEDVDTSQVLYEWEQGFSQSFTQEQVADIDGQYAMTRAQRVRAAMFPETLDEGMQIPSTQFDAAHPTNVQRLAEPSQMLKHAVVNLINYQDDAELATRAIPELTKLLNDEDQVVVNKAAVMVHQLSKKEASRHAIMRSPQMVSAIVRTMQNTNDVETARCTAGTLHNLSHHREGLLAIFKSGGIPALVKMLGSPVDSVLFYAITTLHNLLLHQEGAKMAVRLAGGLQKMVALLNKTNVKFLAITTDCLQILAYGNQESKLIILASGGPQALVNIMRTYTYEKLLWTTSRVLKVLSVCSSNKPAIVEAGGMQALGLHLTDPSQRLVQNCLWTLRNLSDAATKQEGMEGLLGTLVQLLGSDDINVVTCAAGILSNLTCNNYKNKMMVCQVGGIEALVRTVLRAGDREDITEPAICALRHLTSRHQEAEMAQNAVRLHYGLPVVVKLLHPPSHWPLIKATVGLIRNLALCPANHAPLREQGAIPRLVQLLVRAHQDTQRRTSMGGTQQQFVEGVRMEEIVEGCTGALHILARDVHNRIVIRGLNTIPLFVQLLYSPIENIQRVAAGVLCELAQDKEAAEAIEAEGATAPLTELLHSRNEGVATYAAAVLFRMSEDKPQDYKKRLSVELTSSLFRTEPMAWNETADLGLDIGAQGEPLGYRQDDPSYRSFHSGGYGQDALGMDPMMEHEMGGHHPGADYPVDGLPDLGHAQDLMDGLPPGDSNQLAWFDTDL
Procedure, shortened: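 First, β-catenin at 100 nM is mixed with 5 nM labelled TCF4 at room temperature. Next, compound is added across serial dilutions (10 nM to 30 uM). Finally, fluorescence polarization is measured (ex 470 nm, em 520 nm); experiments are done three times.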

[2] = % Viability non-Wnt responsive cells

SMILES | EC50 [1] | β-Cat FP Hill slope (β-catenin) | Kd (β-catenin) | viability [2]
CC[C@H](C)[C@H](NC(=O)[C@H](CC(C)C)NC(=O)[C@H](Cc1ccccc1)NC(=O)[C@H](Cc1c[nH]c2ccccc12)NC(=O)[C@H](CCSC)NC(=O)[C@H](CCCNC(=N)N)NC(=O)[C@H](CO)NC(=O)[C@@H](N)CCSC)C(=O)N[C@@H](CO)C(=O)N[C@@H](Cc1ccccc1)C(=O)N[C@@H](CCCNC(=N)N)C(=O)NCC(=O)O [compound 69] (H-MSRMWFLISFRG-OH) | > 30 µM | 1.64 | < 0.4 µM | 99.7%
CC[C@H](C)[C@H](NC(=O)[C@H](CC(C)C)NC(=O)[C@@H](NC(=O)[C@H](Cc1c[nH]c2ccccc12)NC(=O)[C@H](CCSC)NC(=O)[C@@H](N)CCCNC(=N)N)[C@@H](C)CC)C(=O)N[C@@H](CS)C(=O)N[C@@H](Cc1ccccc1)C(=O)N[C@@H](Cc1c[nH]c2ccccc12)C(=O)NCC(=O)O [compound 115] (H-RMWILICFWG-OH) | 15 to 22.5 µM | 0.7 | 1 to 10 µM | 116%
CC[C@H](C)[C@@H]1NC(=O)[C@H](CC(C)C)NC(=O)[C@H](Cc2ccccc2)NC(=O)[C@H](Cc2c[nH]c3ccccc23)NC(=O)[C@@H](N)CCCCNC(=O)CC[C@@H](C(=O)N[C@@H](Cc2c[nH]c3ccccc23)C(=O)NCC(=O)O)NC(=O)[C@H](CS)NC1=O [compound 173] (HELM PEPTIDE1{K.W.F.L.I.C.E.W.G}$PEPTIDE1,PEPTIDE1,1:R3-7:R3$$$V2.0) | > 30 µM | 0.7 | – | 107%
CC[C@H](C)[C@H](NC(=O)[C@H](CC(C)C)NC(=O)[C@@H](NC(=O)[C@H](Cc1c[nH]c2ccccc12)NC(=O)[C@H](CCSC)NC(=O)[C@H](CCCNC(=N)N)NC(=O)[C@H](CO)NC(=O)[C@@H](N)CCSC)[C@@H](C)CC)C(=O)N[C@@H](CO)C(=O)N[C@@H](Cc1ccccc1)C(=O)N[C@@H](Cc1c[nH]c2ccccc12)C(=O)NCC(=O)O [compound 51] (H-MSRMWILISFWG-OH) | 7.5 to 15 µM | – | – | 98.5%
CC[C@H](C)[C@H](NC(=O)[C@H](CC(C)C)NC(=O)[C@H](Cc1ccccc1)NC(=O)[C@H](Cc1c[nH]c2ccccc12)NC(=O)[C@H](CCSC)NC(=O)[C@H](CCCNC(=N)N)NC(=O)[C@H](CO)NC(=O)[C@@H](N)CCSC)C(=O)N[C@@H](CO)C(=O)N[C@@H](Cc1ccccc1)C(=O)N[C@@H](Cc1c[nH]c2ccccc12)C(=O)N[C@H](C(=O)NCC(=O)O)[C@@H](C)O [compound 44] (H-MSRMWFLISFWTG-OH) | 15 to 22.5 µM | – | – | 102%
CC[C@H](C)[C@H](NC(=O)[C@H](CC(C)C)NC(=O)[C@H](Cc1ccccc1)NC(=O)[C@H](Cc1c[nH]c2ccccc12)NC(=O)[C@@H](N)CCSC)C(=O)N[C@@H](CS)C(=O)N[C@@H](Cc1ccccc1)C(=O)N[C@@H](Cc1c[nH]c2ccccc12)C(=O)N(C)CC(=O)O [compound 213] (HELM PEPTIDE1{M.W.F.L.I.C.F.W.[Sar]}$$$$V2.0) | – | – | 1 to 10 µM | 112%
CC[C@H](C)[C@@H]1NC(=O)[C@@H](NC(=O)[C@H](CCC(N)=O)NC(=O)[C@H](C)N(C)C(=O)[C@H](Cc2c[nH]c3ccccc23)NC(C)=O)CCCCNC(=O)CC[C@@H](C(=O)N[C@@H](Cc2c[nH]cn2)C(=O)N[C@H](C(=O)N[C@@H](CCC(N)=O)C(=O)N[C@@H](CCCNC(=N)N)C(=O)N[C@H](C(=O)N[C@@H](Cc2c[nH]c3ccccc23)C(=O)NCC(N)=O)C(C)C)C2CCCCC2)NC(=O)[C@H](CC(N)=O)NC(=O)[C@H](CC(C)C)NC1=O [compound 435] (HELM PEPTIDE1{[ac].W.[meA].Q.K.I.L.N.E.H.[O=C([C@@H](N[*:1])C1CCCCC1)[*:2]].Q.R.V.W.G.[am]}$PEPTIDE1,PEPTIDE1,5:R3-9:R3$$$V2.0) | > 30 µM | 0.7 | < 0.4 µM | –
CC[C@H](C)[C@@H]1NC(=O)[C@H](CC(C)C)NC(=O)[C@H](Cc2ccc(O)cc2)NC(=O)[C@H](Cc2c[nH]c3ccccc23)NC(=O)[C@H](CCSC)NC(=O)[C@H](CCCNC(=N)N)NC(=O)[C@H](CO)NC(=O)[C@H](CCSC)NC(=O)[C@@H](N)CCCCNC(=O)[C@H](Cc2c[nH]c3ccccc23)NC(=O)[C@H](Cc2ccccc2)NC(=O)[C@H](CO)NC1=O [compound 31] (HELM PEPTIDE1{K.M.S.R.M.W.Y.L.I.S.F.W}$PEPTIDE1,PEPTIDE1,1:R3-12:R2$$$V2.0; bridges inferred) | > 30 µM | – | – | 89%
CC[C@H](C)[C@@H]1NC(=O)[C@@H](NC(=O)[C@H](CCC(N)=O)NC(=O)[C@@H]2CCCCN2C(=O)[C@H](Cc2c[nH]c3ccccc23)NC(C)=O)CCCCNC(=O)CC[C@@H](C(=O)N[C@@H](Cc2c[nH]cn2)C(=O)N[C@H](C(=O)N[C@@H](CCC(N)=O)C(=O)N[C@@H](CCCNC(=N)N)C(=O)N[C@H](C(=O)N[C@@H](Cc2c[nH]c3ccccc23)C(=O)NCC(N)=O)C(C)C)C2CCCCC2)NC(=O)[C@H](CC(=O)O)NC(=O)[C@H](CC(C)C)NC1=O [compound 442] (HELM PEPTIDE1{[ac].W.[O=C([C@@H]1CCCCN1[*:1])[*:2]].Q.K.I.L.D.E.H.[O=C([C@@H](N[*:1])C1CCCCC1)[*:2]].Q.R.V.W.G.[am]}$PEPTIDE1,PEPTIDE1,5:R3-9:R3$$$V2.0) | < 7.5 µM | 1.51 | < 0.4 µM | –
CC[C@H](C)[C@@H]1NC(=O)[C@@H](NC(=O)[C@H](CCC(N)=O)NC(=O)[C@H](C)N(C)C(C)=O)CCCCNC(=O)CC[C@@H](C(=O)N[C@@H](Cc2c[nH]cn2)C(=O)N[C@H](C(=O)N[C@@H](CCC(N)=O)C(=O)N[C@@H](CCCNC(=N)N)C(=O)N[C@H](C(=O)N[C@@H](Cc2c[nH]c3ccccc23)C(=O)N[C@@H](CCCNC(=N)N)C(N)=O)C(C)C)C2CCCCC2)NC(=O)[C@H](CC(=O)O)NC(=O)[C@H](CC(C)C)NC1=O [compound 448] (HELM PEPTIDE1{[ac].[meA].Q.K.I.L.D.E.H.[O=C([C@@H](N[*:1])C1CCCCC1)[*:2]].Q.R.V.W.R.[am]}$PEPTIDE1,PEPTIDE1,4:R3-8:R3$$$V2.0) | > 30 µM | 0.7 | < 0.4 µM | –
CC[C@H](C)[C@H](NC(=O)[C@H](CC(C)C)NC(=O)[C@@H](NC(=O)[C@H](Cc1c[nH]c2ccccc12)NC(=O)[C@H](CCSC)NC(C)=O)[C@@H](C)CC)C(=O)N[C@@H](CO)C(=O)N[C@@H](Cc1ccccc1)C(=O)N[C@@H](Cc1c[nH]c2ccccc12)C(=O)N(C)CC(=O)O [compound 221] (HELM PEPTIDE1{[ac].M.W.I.L.I.S.F.W.[Sar]}$$$$V2.0) | – | – | < 0.4 µM | 101%
CC[C@H](C)[C@H](NC(=O)C(C)(CO)NC(=O)[C@H](CCC(=O)O)NC(=O)[C@H](Cc1c[nH]c2ccccc12)NC(=O)[C@@H](N)CCSC)C(=O)N[C@@H](CC(C)C)C(=O)N[C@@H](CC(=O)O)C(=O)N[C@@H](CCC(=O)O)C(=O)N[C@@H](Cc1c[nH]cn1)C(=O)N[C@H](C(=O)N[C@@H](CCC(N)=O)C(=O)N[C@@H](CCCNC(=N)N)C(=O)N[C@H](C(=O)N[C@@H](Cc1c[nH]c2ccccc12)C(=O)NCC(N)=O)C(C)C)C(C)C (some centres unmarked) [compound 35] (HELM PEPTIDE1{M.W.E.[CC(CO)(N[*:1])C(=O)[*:2]].I.L.D.E.H.V.Q.R.V.W.G.[am]}$$$$V2.0) | > 30 µM | 0.96 | < 0.4 µM | –
CC[C@H](C)[C@H](NC(=O)[C@H](CC(C)C)NC(=O)[C@H](Cc1ccccc1)NC(=O)[C@H](Cc1c[nH]c2ccccc12)NC(=O)[C@H](CCSC)NC(=O)[C@H](CCCNC(=N)N)NC(=O)[C@H](CO)NC(=O)[C@@H](N)CCSC)C(=O)N[C@@H](CS)C(=O)N[C@@H](Cc1ccccc1)C(=O)N[C@@H](Cc1c[nH]c2ccccc12)C(=O)NCC(=O)O [compound 46] (H-MSRMWFLICFWG-OH) | < 7.5 µM | – | – | 101%
CC[C@H](C)[C@H](NC(=O)[C@H](CO)NC(=O)[C@H](CCC(=O)O)NC(=O)[C@@H]1CCCN1C(=O)[C@H](CC(C)C)NC(=O)[C@H](CCCNC(=N)N)NC(=O)CCN)C(=O)N[C@@H](CC(C)C)C(=O)N[C@@H](CC(=O)O)C(=O)N[C@@H](CCC(=O)O)C(=O)N[C@@H](Cc1c[nH]cn1)C(=O)N[C@H](C(=O)N[C@@H](CCC(N)=O)C(=O)N[C@@H](CCCNC(=N)N)C(=O)N[C@H](C(=O)N[C@@H](Cc1c[nH]c2ccccc12)C(=O)N1CCC[C@H]1C(N)=O)C(C)C)C(C)C [compound 410] (HELM PEPTIDE1{[bAla].R.L.P.E.S.I.L.D.E.H.V.Q.R.V.W.P.[am]}$$$$V2.0) | > 30 µM | 1.6 | 0.4 to 1 µM | –
